Source: EP3006939A1, “Histidine-rich Glycoprotein as a marker for hepatic Farnesoid X receptor activation” (Gilead Sciences, Inc., priority 2014, dated 2016)
“And” between values parts separate entries of the source, which are not always exact repeats. Identical values can stand only once. “Also recorded” adds a separate entry of the source. Like-named read-outs stand apart in the source and are kept apart here.

Assays:
[1] = test system: HepaRG cells; assay: Microarray experiment, genome wide mRNA array analysis; type: cell-based, human; settings: 1 µM, 24 hours, vs DMSO vehicle; for Fold changes to "DMSO", TBP mRNA: control gene
Protocol: HepaRG cells were obtained plated from Biopredic International (# HPR203-MW96, Rennes, France) and cultivated in 6-well plates using the media and protocol supplied by the manufacturer. Cells were cultivated in induction medium (Biopredic International) with 1 µM of PX20350 (E. Hambruch et al., J. Pharmacol. Exp. Ther. 2012, 343, 556) diluted from a 20 mM stock solution in DMSO or DMSO as a vehicle control for 24 hours. Total RNA was isolated following the instructions of the RNeasy 96 RNA isolation kit (Qiagen, Hilde, Germany) and 200 ng total RNA used for a genome wide mRNA array analysis done as a fee for service at the Genomics & Pro-teomics Core Facility of the German Research Facility using the human Sentrix-6 V3 (4213572043) array from Illumina and standard experimental kits and protocols supplied by the manufacturer (Illumina Inc. San Diego U.S.A.).
This upregulation was similar to that (2.7 fold) of the known direct FXR target gene NR0B2 (SHP, Small heterodimer partner). In comparison, TBP mRNA (TATA box binding protein) was not changed in relative abundance (Table 1).

[2] = test system: human primary Upcyte® Hepatocytes; assay: Induction of HRG transcription, RT-qPCR normalized to TBP; type: cell-based; settings: Hepatocyte, 24 hours
Protocol: (§1) Huh7 (# JCRB0403) cells were obtained from the Health Science Research Resources Bank, Osaka, Japan. Cells were cultivated in MEM containing 8.6% FCS supplemented with 2 mM L-Alanyl-L-Glutamine (all purchased via Sigma-Aldrich, Munich, Germany) in presence of 1 µM of PX20606 or DMSO as a vehicle for 16 hours. Total RNA from cells grown in 96 well tissue plates (Huh7, HepaRG and 3D human liver microtisues) were isolated following the instructions of the RNeasy 96 RNA isolation kit (Qiagen, Hilde, Germany) and cDNA's were synthesized from 1/25th of the isolated total RNA from one 96 well using Superscript II reverse Transcriptase (Life Technologies, Carlsbad, U.S.A.). Quantitative PCR was performed and analyzed using Absolute QPCR Rox Mix (Life Technologies, Carlsbad, U.S.A.) and a 384-format ABI 7900HT Sequence Detection System (Applied Biosystems, Darmstadt, Germany). Gene expression was expressed in arbitrary units and normalized relative to the housekeeping gene TATA box binding protein (TBP). The TBP normalized mRNA levels were plotted for HRG and SHP in Figure 1 (number of replicates n = 6). […]
Upcyte® hepatocytes (Cat# UH0-000-KA00 donor 10-03) derived from primary hepatocytes of a donor were cultivated in 96 well plates in high performance medium (Medicyte, Heidel-berg, Germany). Isolation of total RNA followed by quantitative qPCR was done as described in Example 2.

[3] = target: T1, human FXR (Homo sapiens, UniProt Q96RI1); assay: Luciferase reporter assay with human HRG promoter fragment in Huh7 cells co-transfected with an FXR expression plasmid; type: cell-based; settings: FXR exogenously expressed, 1 µM, 16 h
T1 sequence (Q96RI1 1-486): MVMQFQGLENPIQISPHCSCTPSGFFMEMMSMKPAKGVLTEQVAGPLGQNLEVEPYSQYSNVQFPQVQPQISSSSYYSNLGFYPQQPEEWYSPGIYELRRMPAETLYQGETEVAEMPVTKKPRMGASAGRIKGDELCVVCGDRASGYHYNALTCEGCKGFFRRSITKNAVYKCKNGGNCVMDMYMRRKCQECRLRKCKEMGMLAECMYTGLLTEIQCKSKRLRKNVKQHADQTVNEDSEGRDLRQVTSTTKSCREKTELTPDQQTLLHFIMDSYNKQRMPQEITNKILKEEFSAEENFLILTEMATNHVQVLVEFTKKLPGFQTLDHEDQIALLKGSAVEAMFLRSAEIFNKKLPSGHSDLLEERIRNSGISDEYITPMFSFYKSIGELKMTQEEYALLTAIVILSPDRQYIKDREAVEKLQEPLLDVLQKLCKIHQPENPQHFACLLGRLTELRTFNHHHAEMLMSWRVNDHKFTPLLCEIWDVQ
Source text: A human HRG promoter fragment was cloned as a Xhol-Hindlll fragment (from position -1,973 till +8 with respect to the mRNA starting nucleotide at +1) using the oligonucleotides […] (SEQ ID No. 10) and […] (SEQ ID No. 11) into the Xhol and Hindlll sites of pGL2basic (Promega, Madison, U.S.A.). The IR1 and ER2 sites were mutated using the primers of Table 3. Table 3: Primer sequences
The reporter plasmids pGL2-FXR-RE (FXR-RE), pGL2-PHRG (wt), pGL2-PHRG-IR1mut (IR1mut) and pGL2-PHRG-ER2mut (ER2mut) and pGL2-PHRG-IR1/ER2 (DM) (each 50 ng/well), were co-transfected with pTRex-Dest30-hFXR (20 ng/well) and pCMV-RL (5 ng/well, constitutively expressing the Renilla luciferase under control of a CMV promotor as an internal control) into Huh7 cells using lipofection with Polyethylenimine and cultivated in presence or absence of 1 µM of the FXR agonist PX20606 or DMSO as a vehicle control for 16 h followed by cell lysis and determination of luciferase activities as described in U. Deuschle et al., PLoS One 2012, 7, e43044.

[4] = test system: HepG2-FXR5 cells; assay: Induction of HRG transcription, RT-qPCR normalized to TBP; type: cell-based; settings: Homo sapiens, 24 hours
Protocol: as §1, with “(TBP).” for “(TBP). The TBP normalized mRNA levels were plotted for HRG and SHP in Figure 1 (number of replicates n = 6).”
HepG2-FXR5 cells (described in U. Deuschle et al., PLoS One. 2012, 7, e43044) were cultivated in 96 well plates in RPMI medium supplemented with 8.6% FCS and supplemented with 2 mM L-Alanyl-L-Glutamine (all purchased via Sigma-Aldrich, Munich, Germany). Isolation of total RNA followed by quantitative qPCR was done as described in Example 2.

[5] = test system: Huh7 human hepatoma cells; assay: Induction of HRG and SHP mRNAs, RT-qPCR normalized to TBP; type: cell-based; settings: Huh-7, 16 hours
Protocol: Huh7 (# JCRB0403) cells were obtained from the Health Science Research Resources Bank, Osaka, Japan. Cells were cultivated in MEM containing 8.6% FCS supplemented with 2 mM L-Alanyl-L-Glutamine (all purchased via Sigma-Aldrich, Munich, Germany) in presence of 1 µM of PX20606 or DMSO as a vehicle for 16 hours. Total RNA from cells grown in 96 well tissue plates (Huh7, HepaRG and 3D human liver microtisues) were isolated following the instructions of the RNeasy 96 RNA isolation kit (Qiagen, Hilde, Germany) and cDNA's were synthesized from 1/25th of the isolated total RNA from one 96 well using Superscript II reverse Transcriptase (Life Technologies, Carlsbad, U.S.A.). Quantitative PCR was performed and analyzed using Absolute QPCR Rox Mix (Life Technologies, Carlsbad, U.S.A.) and a 384-format ABI 7900HT Sequence Detection System (Applied Biosystems, Darmstadt, Germany). Gene expression was expressed in arbitrary units and normalized relative to the housekeeping gene TATA box binding protein (TBP). The TBP normalized mRNA levels were plotted for HRG and SHP in Figure 1 (number of replicates n = 6). Table 2: Primer and probe sequences.

[6] = test system: HepG2-FXR5 cells; assay: Detection of secreted HRG in cell supernatant by Ni-NTA agarose collection and Western blot; type: cell-based, human; settings: 1 µM, 48 hours, vs DMSO, Western blot
Protocol: HepG2-FXR5 cells (described in U. Deuschle et al., PLoS One. 2012, 7, e43044) were cultivated in T75 flasks in RPMI medium supplemented with 0,2% BSA, 2 mM L-Alanyl-L-Glutamine (Sigma-Aldrich, Munich, Germany) and 1x Insulin-Transferrin-Selenium (#51500-056, Life Technolgies, Carlsbad, USA). Each 10 ml supernatant from cells grown in presence of 1 µM PX20606 or DMSO as vehicle for 48 hours were mixed with 100 µL Ni-NTA agarose slurry (#1018240, Qiagen, Hilden, Germany) for 1 h, the slurry was collected by centrifugation and after 3 washes with 10 mL 1xPBS resuspended in 100 µL SDS sample buffer. Western blot was performed (as described in U. Deuschle et al., PLoS One 2012, 7, e43044) and HRG detected using polyclonal mouse-anti human HRG antibodies (ab67807, Abcam, Cambridge, UK).

[7] = read-out: HRG mRNA upregulated compared to DMSO
[8] = read-out: known direct FXR target gene (SHP mRNA) upregulated compared to DMSO

Row | Structure (SMILES) | Fold changes to "DMSO", NR0B2 (SHP) mRNA [1] [fold] | Fold changes to "DMSO", HRG mRNA ([1]; 1440 min) | Fold changes to "DMSO", TBP mRNA [1] | Fold changes to "DMSO", TBP mRNA ([1]; 1440 min) | fold induction at 1 µM [2, 7] | fold induction at 1 µM [2, 8] | activity of HRG promoter with mutated ER-2 site, luciferase reporter [3] | activity of HRG promoter with mutated IR-1 site, luciferase reporter [3] | activity of HRG promoter (wt, -1973 to +8) luciferase reporter ([3]; vs DMSO) | fold induction at 1 µM [4, 7] | fold induction at 1 µM [4, 8] | fold induction at 1 µM [5, 7] | fold induction at 1 µM [5, 8] | amount of secreted HRG [6]
1 | CN(Cc1ccc(C(=O)O)cc1)c1ccc(OCc2c(-c3c(Cl)cccc3Cl)noc2C2CC2)nc1C(F)(F)F [PX20350] | 2.7 | 2 fold and 2.0 fold | not changed | 1.0 | – | – | – | – | – | – | – | – | – | –
2 | O=C(O)c1ccc(C2CC2c2ccc(OCc3c(-c4c(Cl)cccc4Cl)noc3C3CC3)cc2Cl)cc1 (centres unmarked) [PX20606, 4-(2-(2-chloro-4-((5-cyclopropyl-3-(2,6-dichlorophenyl)isoxazol-4-yl)methoxy)phenyl)cyclopropyl)benzoic acid] | – | – | – | – | ~11 | ~10 | loss of FXR/FXR agonist responsitivity | reduce the activity | active | ~20 | ~6 | ~3.5 | ~4 | increased; also recorded: up-regulated
